This note sets out measurements from patent publication US20230265098A1, “ALKYNE QUINAZOLINE DERIVATIVES AS INHIBITORS OF ERBB2” (EnLiven Therapeutics, Inc., priority 2020, published 2023).

Test [1] has as its target T1, Ba/F3 ERBB2 A775_G776insYVMA (Homo sapiens, UniProt P04626, DUP772-775, cells depend on it).
T1 construct: Ba/F3 cell lines were engineered to express human ERBB2 or EGFR kinases, rendering the cells IL-3 independent
Nature of the test: Cell viability assay (CellTiter Glo). The class given is cell-based, mouse. The settings on record: 72 hours; 3000 cells per well, 96-well plates (Tables B3-B4); read-out: Cell viability IC50, nM, Ba/F3 ERBB2 A775_G776insYVMA. The method, boiled down: (§1)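 Murine Ba/F3 cells made IL-3-independent by retroviral human EGFR or ERBB2 were seeded at 3000 or 300 cells per well and exposed to serially diluted compound (DMSO ≤0.1%) for 72 hours at 37° C, 5% CO2. CellTiter Glo luminescence was normalised to DMSO and media-only controls and fitted to a sigmoidal dose-response.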
A general note: Cellular ATP, detected with luciferase, serves as a proxy for viable cell number.

In test [2] the target is T2, Ba/F3 ERBB2-G776VC (Homo sapiens, UniProt P04626, DELINS776-776VC, cells depend on it).
T2 construct: Ba/F3 cell lines were engineered to express human ERBB2 or EGFR kinases, rendering the cells IL-3 independent
Nature of the test: Cell viability assay (CellTiter Glo). It counts as cell-based, mouse. The settings on record: 72 hours; 3000 cells per well, 96-well plates; read-out: Cell viability IC50, nM, Ba/F3 ERBB2-G776VC. In short, it runs like this: as §1

In test [3] the target is T3, Ba/F3 ERBB2-L755S (Homo sapiens, UniProt P04626, L755S, cells depend on it).
T3 construct: Ba/F3 cell lines were engineered to express human ERBB2 or EGFR kinases, rendering the cells IL-3 independent
Nature of the test: Cell viability assay (CellTiter Glo). The class given is cell-based, mouse. The note with it: 72 hours; 3000 cells per well, 96-well plates; read-out: Cell viability IC50, nM, Ba/F3 ERBB2-L755S. In short, it runs like this: as §1

The target of test [4] is T4, Ba/F3 ERBB2-L869R (Homo sapiens, UniProt P04626, L869R, cells depend on it).
T4 construct: Ba/F3 cell lines were engineered to express human ERBB2 or EGFR kinases, rendering the cells IL-3 independent
Nature of the test: Cell viability assay (CellTiter Glo). The class given is cell-based, mouse. The note with it: 72 hours; 3000 cells per well, 96-well plates; read-out: Cell viability IC50, nM, Ba/F3 ERBB2-L869R. In short, it runs like this: as §1

The target in test [5] is T5, Ba/F3 ERBB2-T798M (Homo sapiens, UniProt P04626, T798M, cells depend on it).
T5 construct: Ba/F3 cell lines were engineered to express human ERBB2 or EGFR kinases, rendering the cells IL-3 independent
Nature of the test: Cell viability assay (CellTiter Glo). It counts as cell-based, mouse. The settings on record: 72 hours; 3000 cells per well, 96-well plates; read-out: Cell viability IC50, nM, Ba/F3 ERBB2-T798M. The method, boiled down:
as §1

The target in test [6] is T6, Ba/F3 ERBB2-V777L (Homo sapiens, UniProt P04626, V777L, cells depend on it).
T6 construct: Ba/F3 cell lines were engineered to express human ERBB2 or EGFR kinases, rendering the cells IL-3 independent
Nature of the test: Cell viability assay (CellTiter Glo). It counts as cell-based, mouse. The note with it: 72 hours; 3000 cells per well, 96-well plates; read-out: Cell viability IC50, nM, Ba/F3 ERBB2-V777L. The method, boiled down:
as §1

Test [7] addresses T7, Ba/F3 ERBB2-V777_G778insGC (Homo sapiens, UniProt P04626, INS778CG, cells depend on it).
T7 construct: Ba/F3 cell lines were engineered to express human ERBB2 or EGFR kinases, rendering the cells IL-3 independent
Nature of the test: Cell viability assay (CellTiter Glo). It counts as cell-based, mouse. The settings on record: 72 hours; 3000 cells per well, 96-well plates; read-out: Cell viability IC50, nM, Ba/F3 ERBB2-V777_G778insGC. In short, it runs like this: as §1

The target of test [8] is T8, Ba/F3 ERBB2-P780_Y781insGSP (Homo sapiens, UniProt P04626, DUP778-780, cells depend on it).
T8 construct: Ba/F3 cell lines were engineered to express human ERBB2 or EGFR kinases, rendering the cells IL-3 independent
Nature of the test: Cell viability assay (CellTiter Glo). The class given is cell-based, mouse. The note with it: 72 hours; 3000 cells per well, 96-well plates; read-out: Cell viability IC50, nM, Ba/F3 ERBB2-P780_Y781insGSP. The protocol: Cells were treated with compounds, and cell viability was measured as a metric of kinase inhibition.
The Ba/F3 cell line is IL-3-dependent mouse cell line derived from the C3H mouse strain. Ba/F3 cell lines were engineered to express human ERBB2 or EGFR kinases, rendering the cells IL-3 independent. The lines were generated via retroviral transduction utilizing a Moloney murine leukemia virus (MMLV) promoter, and constructs are stably integrated into the cell genome.
Similarly, Ba/F3 cell lines engineered to express EGFR, ERBB2, or ERBB2 mutants were grown, harvested, counted and seeded at 3000 cells per well in 96-well plates for the data sets shown in Tables B3-B4, and seeded at 300 cells per well in 384-well plates for the data set shown in Table B5. A subset of wells contained media only (low control, “LC”).
Table B2 provides the growth media and number of cells seeded per well for the each cell line.
Compounds were dissolved in DMSO and serially diluted. Serially-diluted compound or a DMSO only control (high control, “HC”) was added to the plated cells in each well. […] The final proportion of DMSO never exceeded 0.1%.
Plates were placed in a 37° C., 5% CO2 incubator for 72 hours. Plates were then removed from the incubator and equilibrated for 15 minutes at room temperature. 40 IA of CellTiter Glo reagent (Promega) was added to measure the relative level of metabolically active cells by quantifying intracellular ATP concentrations. Plates were incubated for 30 minutes at room temperature, and luminescence was measured. […] Graphical curves were fitted using a nonlinear regression model with a sigmoidal dose response.

Test [9] has as its target T9, phosphorylated ERBB2 (pERBB2) (Homo sapiens, UniProt P04626).
T9 construct: endogenous in cells; host or cells: BT-474
Nature of the test: Detection of phosphorylated ERBB2 (pERBB2) by ELISA in BT-474 cells. The note with it: four hours incubation with compound, OD 450 nm. It counts as cell-based. The method, boiled down:
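BT-474 cells were treated for 4 h at 37 °C with four-fold compound dilutions from 10 μM to 0.01 nM final, then lysed. Phospho-ERBB2 in the lysates was measured by ELISA with TMB read-out at 450 nm. Relative activity was normalised between cell-free wells and 0.1% DMSO-treated cells.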
Background: ELISA stands for enzyme-linked immunosorbent assay.

Structures are written as SMILES. Some results are limits rather than exact numbers.

T7 sequence (P04626 with tags, fused parts or gaps INS778CG): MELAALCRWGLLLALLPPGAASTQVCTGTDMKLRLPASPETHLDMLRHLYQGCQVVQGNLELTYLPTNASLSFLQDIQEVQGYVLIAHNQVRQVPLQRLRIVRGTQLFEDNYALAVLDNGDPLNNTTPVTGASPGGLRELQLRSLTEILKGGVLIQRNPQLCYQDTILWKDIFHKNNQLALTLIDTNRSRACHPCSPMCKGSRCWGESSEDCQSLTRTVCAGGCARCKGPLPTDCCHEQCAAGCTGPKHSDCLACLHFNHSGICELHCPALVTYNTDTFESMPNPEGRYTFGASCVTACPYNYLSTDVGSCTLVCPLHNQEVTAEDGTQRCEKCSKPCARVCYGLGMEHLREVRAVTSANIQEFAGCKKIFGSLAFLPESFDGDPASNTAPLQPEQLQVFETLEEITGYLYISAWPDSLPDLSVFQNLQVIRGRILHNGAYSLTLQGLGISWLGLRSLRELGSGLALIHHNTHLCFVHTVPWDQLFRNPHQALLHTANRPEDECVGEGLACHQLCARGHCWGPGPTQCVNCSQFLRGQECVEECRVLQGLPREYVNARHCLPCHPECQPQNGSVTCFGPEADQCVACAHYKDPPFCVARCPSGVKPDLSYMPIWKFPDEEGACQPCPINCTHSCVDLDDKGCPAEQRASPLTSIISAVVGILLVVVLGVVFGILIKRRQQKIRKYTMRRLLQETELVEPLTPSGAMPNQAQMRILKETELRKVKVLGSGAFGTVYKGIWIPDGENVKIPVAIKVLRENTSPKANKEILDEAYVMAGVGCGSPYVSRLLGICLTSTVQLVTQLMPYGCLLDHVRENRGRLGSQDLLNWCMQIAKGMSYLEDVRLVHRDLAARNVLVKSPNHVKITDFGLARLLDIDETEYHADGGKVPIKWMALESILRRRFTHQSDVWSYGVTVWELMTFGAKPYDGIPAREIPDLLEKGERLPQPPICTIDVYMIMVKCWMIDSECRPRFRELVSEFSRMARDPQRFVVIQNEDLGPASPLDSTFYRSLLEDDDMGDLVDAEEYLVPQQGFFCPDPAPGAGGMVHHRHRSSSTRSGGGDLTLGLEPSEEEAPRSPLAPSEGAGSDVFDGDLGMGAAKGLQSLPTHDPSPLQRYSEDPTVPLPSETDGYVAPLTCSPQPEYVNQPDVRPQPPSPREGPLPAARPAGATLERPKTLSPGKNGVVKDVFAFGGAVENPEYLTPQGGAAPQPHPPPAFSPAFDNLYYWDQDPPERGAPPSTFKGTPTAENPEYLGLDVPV
T4 sequence (P04626 whole entry L869R): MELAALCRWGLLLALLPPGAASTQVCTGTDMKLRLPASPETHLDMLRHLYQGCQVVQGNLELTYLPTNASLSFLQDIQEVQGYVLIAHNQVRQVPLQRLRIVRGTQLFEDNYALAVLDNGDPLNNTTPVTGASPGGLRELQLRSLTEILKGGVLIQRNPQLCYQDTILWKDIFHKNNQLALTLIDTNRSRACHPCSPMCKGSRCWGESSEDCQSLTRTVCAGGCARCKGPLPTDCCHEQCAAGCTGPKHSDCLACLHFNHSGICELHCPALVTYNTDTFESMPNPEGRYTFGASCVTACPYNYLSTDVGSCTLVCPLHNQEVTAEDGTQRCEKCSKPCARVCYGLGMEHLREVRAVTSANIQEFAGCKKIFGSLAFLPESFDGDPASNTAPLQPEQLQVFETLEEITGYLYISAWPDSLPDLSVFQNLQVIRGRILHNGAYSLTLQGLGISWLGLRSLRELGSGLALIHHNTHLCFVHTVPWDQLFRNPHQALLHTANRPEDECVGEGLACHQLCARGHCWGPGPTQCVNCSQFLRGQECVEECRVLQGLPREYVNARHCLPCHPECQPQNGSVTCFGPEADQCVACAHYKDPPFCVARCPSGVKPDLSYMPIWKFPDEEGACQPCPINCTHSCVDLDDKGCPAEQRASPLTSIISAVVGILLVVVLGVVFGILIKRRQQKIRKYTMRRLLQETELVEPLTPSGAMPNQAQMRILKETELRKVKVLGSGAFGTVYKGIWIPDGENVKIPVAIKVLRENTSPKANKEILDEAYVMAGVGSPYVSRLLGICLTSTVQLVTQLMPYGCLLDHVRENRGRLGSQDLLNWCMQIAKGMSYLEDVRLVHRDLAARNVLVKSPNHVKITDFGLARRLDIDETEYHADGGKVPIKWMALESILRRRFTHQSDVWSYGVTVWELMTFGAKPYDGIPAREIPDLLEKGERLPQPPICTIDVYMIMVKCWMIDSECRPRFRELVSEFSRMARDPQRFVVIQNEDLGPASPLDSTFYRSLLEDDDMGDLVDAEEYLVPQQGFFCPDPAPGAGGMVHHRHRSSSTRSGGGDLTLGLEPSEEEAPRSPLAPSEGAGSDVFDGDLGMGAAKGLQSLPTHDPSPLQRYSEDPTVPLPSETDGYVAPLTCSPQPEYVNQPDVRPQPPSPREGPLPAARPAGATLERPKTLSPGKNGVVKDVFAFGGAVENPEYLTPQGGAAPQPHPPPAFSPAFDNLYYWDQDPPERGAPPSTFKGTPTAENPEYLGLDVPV
T3 sequence (P04626 whole entry L755S): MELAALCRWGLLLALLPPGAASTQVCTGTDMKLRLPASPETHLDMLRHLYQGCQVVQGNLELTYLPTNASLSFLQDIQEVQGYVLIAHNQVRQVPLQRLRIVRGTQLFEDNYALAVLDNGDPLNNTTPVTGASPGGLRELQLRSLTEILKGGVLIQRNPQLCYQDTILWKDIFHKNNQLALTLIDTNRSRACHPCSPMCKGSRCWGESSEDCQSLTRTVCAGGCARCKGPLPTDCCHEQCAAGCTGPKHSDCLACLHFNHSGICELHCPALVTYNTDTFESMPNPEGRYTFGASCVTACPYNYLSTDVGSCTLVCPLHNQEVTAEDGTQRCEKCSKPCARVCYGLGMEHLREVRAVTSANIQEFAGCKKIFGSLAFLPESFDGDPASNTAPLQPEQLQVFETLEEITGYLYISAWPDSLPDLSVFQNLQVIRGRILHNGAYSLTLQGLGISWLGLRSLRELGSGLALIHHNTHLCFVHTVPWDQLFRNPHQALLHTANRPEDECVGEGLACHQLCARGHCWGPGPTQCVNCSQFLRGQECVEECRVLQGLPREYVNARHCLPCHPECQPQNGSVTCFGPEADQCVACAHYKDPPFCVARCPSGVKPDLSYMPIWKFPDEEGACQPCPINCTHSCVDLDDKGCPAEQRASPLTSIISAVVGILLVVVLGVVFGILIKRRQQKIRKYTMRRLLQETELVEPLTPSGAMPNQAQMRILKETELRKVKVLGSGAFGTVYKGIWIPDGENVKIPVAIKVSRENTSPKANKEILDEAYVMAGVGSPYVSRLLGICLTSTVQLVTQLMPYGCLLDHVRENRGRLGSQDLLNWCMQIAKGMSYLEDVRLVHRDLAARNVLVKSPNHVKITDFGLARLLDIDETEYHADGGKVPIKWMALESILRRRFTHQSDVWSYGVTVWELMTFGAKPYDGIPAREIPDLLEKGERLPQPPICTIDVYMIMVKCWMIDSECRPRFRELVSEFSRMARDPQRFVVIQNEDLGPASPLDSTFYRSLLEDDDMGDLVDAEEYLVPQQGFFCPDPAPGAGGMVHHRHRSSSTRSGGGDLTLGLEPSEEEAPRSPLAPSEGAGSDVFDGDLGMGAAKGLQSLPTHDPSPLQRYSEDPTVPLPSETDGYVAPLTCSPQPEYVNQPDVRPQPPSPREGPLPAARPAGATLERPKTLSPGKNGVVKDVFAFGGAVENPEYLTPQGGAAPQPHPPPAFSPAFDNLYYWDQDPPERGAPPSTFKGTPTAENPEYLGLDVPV
T8 sequence (P04626 with tags, fused parts or gaps DUP778-780): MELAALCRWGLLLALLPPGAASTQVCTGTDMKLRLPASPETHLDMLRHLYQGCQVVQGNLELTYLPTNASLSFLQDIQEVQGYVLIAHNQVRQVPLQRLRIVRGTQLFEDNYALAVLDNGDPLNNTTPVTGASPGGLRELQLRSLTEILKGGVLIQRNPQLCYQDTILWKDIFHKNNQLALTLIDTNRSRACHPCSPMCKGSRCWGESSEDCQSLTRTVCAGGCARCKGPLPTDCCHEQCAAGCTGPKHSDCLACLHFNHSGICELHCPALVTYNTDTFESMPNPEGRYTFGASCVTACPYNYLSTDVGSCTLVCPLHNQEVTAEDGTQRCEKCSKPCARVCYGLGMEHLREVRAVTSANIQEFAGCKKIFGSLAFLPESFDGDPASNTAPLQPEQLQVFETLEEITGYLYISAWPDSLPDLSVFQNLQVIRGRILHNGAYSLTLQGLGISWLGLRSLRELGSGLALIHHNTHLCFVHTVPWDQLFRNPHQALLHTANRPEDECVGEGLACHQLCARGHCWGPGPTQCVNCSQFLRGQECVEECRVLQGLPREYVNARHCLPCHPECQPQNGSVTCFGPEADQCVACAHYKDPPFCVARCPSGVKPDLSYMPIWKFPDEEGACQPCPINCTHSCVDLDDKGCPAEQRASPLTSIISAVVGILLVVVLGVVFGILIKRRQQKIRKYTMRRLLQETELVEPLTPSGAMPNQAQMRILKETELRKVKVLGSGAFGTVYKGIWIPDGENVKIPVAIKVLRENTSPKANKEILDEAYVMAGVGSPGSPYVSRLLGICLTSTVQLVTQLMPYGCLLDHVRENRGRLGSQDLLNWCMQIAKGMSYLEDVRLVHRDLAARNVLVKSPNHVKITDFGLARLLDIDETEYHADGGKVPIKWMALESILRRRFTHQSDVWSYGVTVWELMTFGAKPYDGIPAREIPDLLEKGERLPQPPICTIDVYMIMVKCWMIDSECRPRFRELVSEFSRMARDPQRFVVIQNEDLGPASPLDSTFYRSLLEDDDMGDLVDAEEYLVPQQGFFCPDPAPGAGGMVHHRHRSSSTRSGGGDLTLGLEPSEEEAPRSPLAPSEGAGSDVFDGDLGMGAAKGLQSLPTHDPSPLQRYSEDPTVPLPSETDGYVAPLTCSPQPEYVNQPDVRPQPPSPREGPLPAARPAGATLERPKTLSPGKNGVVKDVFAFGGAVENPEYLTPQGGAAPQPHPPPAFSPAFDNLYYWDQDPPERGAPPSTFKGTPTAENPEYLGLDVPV

For orientation: IC50 means the concentration at which inhibition is half-maximal. As to `CC#CC(=O)Nc1ccc2ncnc(Nc3ccc(Oc4ccn5ncnc5c4)c(C)c3)c2c1` [Compound 1, N-[4-[(3-methyl-4-[[1,2,4]triazolo[1,5-a]pyridin-7-yloxy]phenyl)amino]quinazolin-6-yl]but-2-ynamide], the GI50 in [1] is 4.4 nM; in test [2], 2.6 nM; in [3], roughly 1 nM; in test [4], less than 1 nM; in test [5], 15 nM; in [6], less than 1 nM. Also, the GI50 is less than 1 nM in [7] and 0.65 nM in [8]. The IC50 in test [9] was found to be 10.3 nM.
With `CC#CC(=O)Nc1cc2c(Nc3ccc(Oc4ccn5ncnc5c4)c(C)c3)ncnc2cc1OCCN(C)C` [Compound 150, N-[7-[2-(dimethylamino)ethoxy]-4-[(3-methyl-4-[[1,2,4]triazolo[1,5-a]pyridin-7-yloxy]phenyl)amino]quinazolin-6-yl]but-2-ynamide], the GI50 in [1] amounted to 8.42 nM; in test [2] it was 13.6 nM; in [3], 11.4 nM; in test [4] it was 4.31 nM; in test [5], 56.9 nM; in [6] it was 1.73 nM. The values for the GI50 in test [7] and in test [8] were 3.01 nM and 2.63 nM, respectively. In addition, the IC50 in test [9] came out at 7.05 nM.
`Cc1cc(Nc2ncnc3ccc(NC4=NC(C)(C)CO4)cc23)ccc1Oc1ccn2ncnc2c1` [Tucatinib, tucatinib, reference compound]: the GI50 in test [1] amounted to 356 nM; in test [2], 193 nM; in test [3], 228 nM; in test [4] it was 63.5 nM; in [5] it was 1370 nM; in [6], 11 nM. Besides, the GI50 in test [7] was determined as 12.5 nM; in test [8], 25.3 nM. In addition, the half-inhibitory concentration (IC50) in test [9] was found to be 23.1 nM.
